According to US6262064A, “Octahydrobenzo[f]quinoline-based receptor agonists and antagonists” (priority 1999, dated 2001):
“Also recorded” adds a separate entry of the source. Read-outs that look alike come from different tables or passages of the source.

Columns and labels:
[1] = test system: male Sprague-Dawley albino rats; assay: Stereotypy evaluation for dopaminergic activity; assay type: in vivo; details: IP
Protocol: Young, adult, male Sprague-Dawley (Charles River) albino rats (200-250 g) served as subjects in this experiment. The rats were injected IP with each dose of (±)-trans-9 or (±)-cis-9. Six rats were tested at each dose. Experimental sessions were 60 minutes in duration. The tests were performed and rated in accordance with the method described in Campbell et al., Psychopharmacology, 88:158 (1986). Each rat was rated with a score of 0 to 3, where 0 represents no sterotypy.

D2 dopamine receptor = molecular target: T1, D2 dopamine receptor (Rattus norvegicus, UniProt P61169); assay: Dopamine D2 binding assay ([3H]Sulpiride)
T1 construct: rat striatal membranes; from tissue; host or cells: rat striatum membranes
T1 sequence (P61169 whole entry): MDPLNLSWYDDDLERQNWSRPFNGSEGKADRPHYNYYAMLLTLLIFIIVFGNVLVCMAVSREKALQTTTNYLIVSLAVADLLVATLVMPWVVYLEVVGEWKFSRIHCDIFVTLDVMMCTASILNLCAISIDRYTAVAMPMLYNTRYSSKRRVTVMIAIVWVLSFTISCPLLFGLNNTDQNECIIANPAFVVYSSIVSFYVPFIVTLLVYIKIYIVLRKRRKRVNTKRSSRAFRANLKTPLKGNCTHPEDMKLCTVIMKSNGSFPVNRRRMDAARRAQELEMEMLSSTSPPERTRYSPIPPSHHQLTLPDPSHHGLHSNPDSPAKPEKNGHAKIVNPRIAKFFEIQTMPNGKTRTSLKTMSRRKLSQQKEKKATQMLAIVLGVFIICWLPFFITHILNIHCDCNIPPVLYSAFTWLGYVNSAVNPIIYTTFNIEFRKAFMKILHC
Protocol: The final ligand concentration was 0.5 nM.

[2] = test system: non-habituated male Swiss-Webster mice; assay: Locomotor dose-effect test; assay type: in vivo
Protocol: Compounds of this invention were tested to evaluate any depressant effect upon locomotor activity on non-habituated and cocaine-influenced mice. Locomotor activity was measured in photocell cages. A panel of infrared beams was located in the horizontal direction along all 4 sides of each activity cage. Horizontal photocell beam interruptions were recorded by a computer in 10 minute intervals.
Non-habituated male Swiss-Webster served as subjects in this experiment. The mice were injected via the intraperitoneal (IP) route with a methycellulose vehicle or a test compound, comprising trans-9 or cis-9, and placed singly in cages for 20 minutes. After this 20 minute period, mice were injected with saline IP, placed in individual photocell cages and testing for effects upon locomotor activity was begun. Eight mice were tested at each dose level. Experimental sessions were 60 minutes in duration with horizontal locomotor activity recorded in 10 minute intervals. Within each 10 minute interval, the data from all subjects are averaged.
The results of these tests were provided in FIGS. 1a, 1b, 2a and 2b, as well as in Table XI. […] Data were analyzed by a one-way ANOVA computed across doses using a long10 transformation of the horizontal activity counts. Comparisons between vehicle and each dose of the compounds tested were made by a priori contrasts. Doses of the compounds tested, which produced a statistically significant (p<0.05) decrease in locomotor activity relative to vehicle control, are denoted with an asterisk. […] The horizontal activity counts were regressed against the log10 dose of the test compound.

D2 receptor [3] = molecular target: T2, D2 receptor (Sus scrofa, UniProt F1SM69); assay: D2:D4 comparative binding assay, D2 (pig anterior pituitary)
T2 construct: pig anterior pituitary tissue; from tissue; host or cells: pig anterior pituitary
T2 sequence (F1SM69 1-443): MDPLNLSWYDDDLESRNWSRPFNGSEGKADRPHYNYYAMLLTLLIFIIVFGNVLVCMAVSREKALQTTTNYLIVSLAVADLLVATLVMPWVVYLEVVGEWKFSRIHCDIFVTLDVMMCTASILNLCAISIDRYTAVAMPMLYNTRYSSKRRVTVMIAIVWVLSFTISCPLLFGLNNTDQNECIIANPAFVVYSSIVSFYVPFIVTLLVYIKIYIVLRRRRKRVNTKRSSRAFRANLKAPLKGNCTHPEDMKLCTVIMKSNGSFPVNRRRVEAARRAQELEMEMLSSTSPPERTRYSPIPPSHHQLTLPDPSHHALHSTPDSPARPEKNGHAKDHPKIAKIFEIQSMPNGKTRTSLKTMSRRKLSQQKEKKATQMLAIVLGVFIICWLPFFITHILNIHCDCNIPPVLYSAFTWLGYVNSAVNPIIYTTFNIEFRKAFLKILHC
Protocol: (§1) To evaluate D2 versus D4 receptor selectivity, comparative binding assays were performed to compare the binding affinities of compositions of this invention for cloned D2 and D4 receptors.
(§2) The D2 assay was prepared from pig anterior pituitary tissue as described in Seeman et al., Molecular Pharmacology, 28:391 (1985). The D4 assay contained membranes prepared from COS-7 cells transfected with a 3.9 kb cDNA-gene fusion construct as described in H. H. M. Vantol, Nature, 350:610 (1991).
(§3) Binding assays were done using the methods described in by Seeman and Vantol. [^3 H]-spiperone (New England Nuclear, Boston, Mass.). The compositions were tested varying concentrations.
(§4) After addition of all components, the samples were incubated for 15 minutes at 37° C., terminated with 50 mM Tris-HCl (pH 7.4 at 20° C.) and collected on glass-fiber filters on a Brandel cell harvester. Radioactivity retained on the filters was counted on a Beckman LS 1701 scintillation counter and data were analyzed by non-linear least squares regression methods.

[4] = molecular target: alpha2-adrenergic receptor; assay: Alpha2-adrenergic (non-selective) binding assay ([3H]RX 781094); design: species or system rat
5HT1 serotonin receptor = assay: Serotonin (5HT1) binding assay
Protocol: In these assays, the binding reaction was initiated by the addition of varying concentrations of the potential binding composition and a radioligand to an appropriate tissue. The assay was then incubated to allow binding. Binding was then terminated by dilution of the assay with a cold buffer, followed by rapid vacuum filtration onto Whatman GI/C filters that were presoaked in 0.1% polyethylene imine for at least 3 hours. Radioactivity trapped onto the filters was determined and compared to control values in order to ascertain any interactions of test compounds with the binding sites.
Incubation was conducted in 50 mM TRIS-HCl (pH 7.4) at 45 minutes for 37° C. The radioligand used was [^3 H]Hydroxytryptamine binoxalate (15-30 Ci/mmol). The final ligand concentration was 3.0 nM.

D2 receptor [5] = molecular target: T3, D2 receptor (Rattus norvegicus, UniProt P61169); assay: D2 receptor agonist evaluation (membrane binding with and without Gpp(NH)p)
T3 construct: expressed in transfected cells
T3 sequence (P61169 whole entry): as the sequence (P61169 whole entry) above
Protocol: (§5) To determine the D2, D3 or D4 receptor selectivity, competition binding assays were performed using membranes from fibroblast cell lines transfected with D2444 (rat), D3 (human) or D4 (rat) receptors. All cell lines were maintained in Dulbecco's modified Eagle's media (DMEM) supplemented with 10 % fetal bovine serum at 37° C. with 5% CO2. Transfected cells were maintained in DMEM containing 300 μg/mL of the antibiotic G418 (Gibco).
To determine whether or not compounds of this invention were D2 receptor agonists, a membrane binding assay, utilizing the D2 cell line described in Example 26, was performed in the presence and absence of the non-hydrolyzable guanine nucleotide (GTP analogue) Gpp(NH)p.

D3 (human) receptor = molecular target: T4, D3 (human) receptor (Homo sapiens, UniProt P35462); assay: D2:D3:D4 competition binding assay, D3 ([3H]-spiperone); details: in words, Example 26
T4 construct: expressed in transfected cells
T4 sequence (P35462 whole entry): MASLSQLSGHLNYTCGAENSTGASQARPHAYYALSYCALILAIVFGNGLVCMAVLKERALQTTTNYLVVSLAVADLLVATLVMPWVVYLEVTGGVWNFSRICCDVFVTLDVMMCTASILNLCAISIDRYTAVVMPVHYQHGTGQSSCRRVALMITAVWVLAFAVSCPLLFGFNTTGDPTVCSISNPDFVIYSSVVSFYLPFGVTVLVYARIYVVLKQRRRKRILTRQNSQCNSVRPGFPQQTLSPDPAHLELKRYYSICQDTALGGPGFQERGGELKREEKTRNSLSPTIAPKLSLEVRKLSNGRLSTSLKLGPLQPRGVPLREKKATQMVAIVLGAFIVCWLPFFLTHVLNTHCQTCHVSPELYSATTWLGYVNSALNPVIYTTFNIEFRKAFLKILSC
Protocol: as §5
Nuclei were removed by centrifugation for five minutes at 600 g at 4° C., membranes were pelleted for 25 minutes at 50,000 g. Membrane protein was resuspended in homogenization buffer (0.32M sucrose, 0.0025M Tris, pH 6.9 at 20° C.) and incubated at 37° C. for 15 minutes. Membrane protein was pelleted, resuspended in water and stored at -70° C.
The compositions were tested in varying concentrations between 1 nM and 100 μM. Non-specific binding was determined using 1 μM eticlopride.
After addition of all components, the samples were incubated for 15 minutes at 37° C., terminated with 50 mM Tris-HCl (pH 7.4 at 4° C.) and collected on glass-fiber filters on a Brandel cell harvester. […] Each composition was evaluated in duplicate experiments.

D1 dopamine receptor = molecular target: T5, D1 dopamine receptor (Rattus norvegicus, UniProt P18901); assay: Dopamine D1 binding assay ([3H]SCH 23390); details: Table III; rat striatal membranes; read-out: D1 receptor binding affinity Ki
T5 construct: rat striatal membranes; from tissue; host or cells: rat striatum membranes
T5 sequence (P18901 whole entry): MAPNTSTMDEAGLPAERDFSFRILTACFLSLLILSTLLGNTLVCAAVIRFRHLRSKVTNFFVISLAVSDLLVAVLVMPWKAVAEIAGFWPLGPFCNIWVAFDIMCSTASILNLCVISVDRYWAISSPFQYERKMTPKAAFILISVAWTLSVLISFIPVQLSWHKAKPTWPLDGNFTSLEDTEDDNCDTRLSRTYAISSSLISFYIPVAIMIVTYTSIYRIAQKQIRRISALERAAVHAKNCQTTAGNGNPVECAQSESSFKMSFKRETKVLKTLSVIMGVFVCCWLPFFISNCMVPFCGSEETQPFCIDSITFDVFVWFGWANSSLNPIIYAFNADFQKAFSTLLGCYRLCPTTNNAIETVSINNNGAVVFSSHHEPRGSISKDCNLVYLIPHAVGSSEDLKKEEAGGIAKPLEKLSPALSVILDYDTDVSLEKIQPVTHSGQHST
Protocol: The final radioligand concentration was 0.5 nM.

[6] = test system: alpha1-adrenergic receptor
Protocol: In these assays, the binding reaction was initiated by the addition of varying concentrations of the potential binding composition and a radioligand to an appropriate tissue. The assay was then incubated to allow binding. Binding was then terminated by dilution of the assay with a cold buffer, followed by rapid vacuum filtration onto Whatman GI/C filters that were presoaked in 0.1% polyethylene imine for at least 3 hours. Radioactivity trapped onto the filters was determined and compared to control values in order to ascertain any interactions of test compounds with the binding sites. Binding affinity analyses were performed by Novascreen, Division of the Adheron Corporation, Hanover, Md.
Incubation was conducted in 50 mM TRIS-HCl (pH 7.7) at 25° C. for 60 minutes. […] The final ligand concentration was 0.5 nm.

D4 receptor = molecular target: T6, D4 receptor (Homo sapiens, UniProt P21917, DEL265-296); assay: D2:D4 comparative binding assay, D4 (COS-7 cells)
T6 construct: expressed in transfected cells; host or cells: COS-7 cells
T6 sequence (P21917 other isoform, or with tags, fused parts or gaps DEL265-296): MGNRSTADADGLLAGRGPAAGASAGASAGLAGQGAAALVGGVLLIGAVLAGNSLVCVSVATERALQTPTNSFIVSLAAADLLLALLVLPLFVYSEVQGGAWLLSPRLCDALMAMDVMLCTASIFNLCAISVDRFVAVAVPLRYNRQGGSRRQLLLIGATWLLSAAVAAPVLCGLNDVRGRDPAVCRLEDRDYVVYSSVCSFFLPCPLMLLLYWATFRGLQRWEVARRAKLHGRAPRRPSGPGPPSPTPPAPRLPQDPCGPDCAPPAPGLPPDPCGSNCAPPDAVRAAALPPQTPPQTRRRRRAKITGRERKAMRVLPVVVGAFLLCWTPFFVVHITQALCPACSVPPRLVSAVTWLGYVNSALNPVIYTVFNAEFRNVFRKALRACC
Protocol: as §1, §2, §3, §4

SMILES: Oc1ccc2c(c1O)CC[C@@H]1[C@@H]2CCCN1CCc1ccccc1 (relative stereo) [trans-9, trans-7,8-dihydroxy-4-phenethyl-1,2,3,4,4a,-5,6,10b-octahydrobenzo[f]quinoline]
- stereotypy score ([1]; 0.0001 mg/kg): 6.5 ± 0.4
- stereotypy score ([1]; 0.001 mg/kg): 10.0 ± 0.9
- stereotypy score ([1]; 0.003 mg/kg): 8.2 ± 0.8
- stereotypy score ([1]; 0.01 mg/kg): 7.2 ± 0.6
- stereotypy score ([1]; 0.03 mg/kg): 6.5 ± 0.5
- stereotypy score ([1]; 0.1 mg/kg): 6.0 ± 0.7
- stereotypy score ([1]; 0.3 mg/kg): 1.7 ± 0.5
- stereotypy score ([1]; 1.0 mg/kg): 0.3 ± 0.2
- stereotypy score ([1]; 3.0 mg/kg): 0.2 ± 0.2
- stereotypy score ([1]; 10.0 mg/kg): 0.0
- induction of stereotypy, dopamine agonism ([1]; in words): appears to be a strong agonist as it induced stereotypy in rats
- Ki (D2 dopamine receptor): 2.2 nM
- dopamine receptor binding affinity (D2 dopamine receptor; in words): good dopamine receptor binding affinities
- selectivity for the D2 over the D1 dopamine receptor (D2 dopamine receptor; in words): highly selective for the D2 dopamine receptor over the D1 dopamine receptor
- decrease in locomotor activity, overall assessment ([2]; IP, in words): strong agonist in inducing a decrease in locomotor activity in mice
- suppression of locomotor activity ([2]; IP, in words): marked suppression of locomotor activity when initially tested at 10 mg/kg; also recorded: Marked suppression was still evident at 0.1 mg/kg
- ED50 ([2]; Mus musculus, read-out: ED50 (dose which produced 50% maximal depressant activity), IP, horizontal locomotor activity): 0.038 mg/kg
- Ki (D2 receptor [3]): 6.9 nM
- Ki ([4]; Table III, rat cortical membranes, read-out: α2 receptor binding affinity Ki): 22 nM
- α2 receptor binding affinity ([4]; in words): high binding affinities for the α2 receptor
- 5HT1 serotonin receptor binding affinity (5HT1 serotonin receptor; in words): high binding affinity for the 5HT1 serotonin receptor
- Ki (5HT1 serotonin receptor; read-out: 5-HT1 receptor binding affinity Ki, Table III, rat cortical membranes): 150 nM
- Ratio of +:- Gpp(NH)p (D2 receptor [5]; Table XV): 8.82
- Ki (D2 receptor [5]; Table XV, with Gpp(NH)p, read-out: D2 receptor binding Ki with Gpp(NH)p): 924 ± 1840 nM
- Ki (D2 receptor [5]; Table XV, without Gpp(NH)p, read-out: D2 receptor binding Ki without Gpp(NH)p): 105 ± 29 nM
- D2 agonist/antagonist assessment (D2 receptor [5]; in words): appear to be agonists
- effect of GTP on D2 receptor binding (D2 receptor [5]; in words): D2 receptor binding was enhanced by the addition of GTP
- selectivity for the D3 receptor (D3 (human) receptor): highly selective for the D3 receptor over the D2 or D4 receptors
- Ki (D1 dopamine receptor): 3600 nM
- α1 receptor binding affinity ([6]; in words): high binding affinities for the α1 receptor
- Ki ([6]; read-out: α1 receptor binding affinity Ki, Table III, rat forebrain membranes): 80 nM
- Ki (D4 receptor): 2.4 nM
